Data: patent US12275795B2, “Binding molecules against BCMA and uses thereof” (NOVARTIS AG, priority 2018, dated 2025)

Columns and labels:
KMS11-luc cells = experiment: RTCC assay of bivalent AB3 in combination with GSI (8x8 matrix); assay type: cell-based, human; conditions: for shift of bivalent AB3 response curves with increasing GSI concentration: combination with bivalent AB3
From the text: Human T cells were isolated from peripheral blood of healthy human donors. First, peripheral blood mononuclear cells (PBMCs) were fractionated from donor blood using a Ficoll-Paque PLUS (GE Healthcare #17-1440-02) density gradient. T-cells were then isolated from PBMCs by negative selection according to manufacturer's recommended protocol (Miltenyi #130-096-535). The isolated T-cells were further expanded using Human T-Activator CD3/CD28 Dynabeads (Gibco #11132D) for nine days, then debeaded magnetically and stored as viable frozen aliquots in liquid nitrogen. The expanded T cells were used as effector T cells in RTCC assays where they were thawed from frozen aliquots, counted and used immediately at an Effector:Target (E:T) cell ratio of 3:1.
The target MM cell line KMS11 was transduced to constitutively express luciferase, which was used to measure cell viability/survival. KMS11 cells were pelleted and resuspended in fresh media immediately prior to plating to remove any basal level of shed BCMA that can have been present. 2,500 KMS11-luc target cells in 25 μL TCM were added to wells of 384-well plates. 50 nL of serially diluted bivalent AB3 and GSI solutions (LY411575, PR03084014, and BMS0708163) were acoustically dispensed to corresponding wells of the assay plates. 7,500 expanded T cells, as described above, were added to corresponding wells of assay plate in 20 μL TCM. The assay was incubated at 37° C./5% CO2 for 20 hr, followed by measurement of luciferase activity to indicate target cell viability (BrightGlo, Promega #E2650) following manufacturer's protocols. Target cells only (KMS11) without T cells or antibodies serve as control and represent 100% luciferase activity (100% viability). Data were plotted and analyzed using Spotfire, where EC50 values were calculated using sigmoidal, 4-parameter non-linear regression curve fit.
Data from bivalent AB3 and GSI combinations from Example 11 (FIG. 24) were plotted and analyzed using Spotfire, where EC50 values were calculated using sigmoidal, 4-parameter non-linear regression curve fit.

sBCMA from KMS11 cells = experiment: Time course of shed BCMA (sBCMA) by ELISA after GSI treatment; assay type: cell-based, human; conditions: 2 nM LY411575 or 200 nM PF03084014, 42-hr time course
Description: (§1) KMS11 cells were cultured in a 6 well plate at 4×10^6 cells/well in 4 mL of RPMI1640 supplemented with 20% FBS (Gibco #11875-085, Seradigm #1500-500) per well. GSI stock solutions were prepared in DMSO at 10 mM, and added to the cells at final concentrations of 2 nM for LY411575 (Sigma #SML0506) or 200 nM for PF03084014 (Selleckchem #S8018) respectively. Cells were incubated at 37° C./5% CO2, and samples were collected at the following time points: 0, 1, 2, 4, 6, 8, 12, 18, 24, 30 and 42 hr. Collected samples were evaluated for BCMA expression by ELISA and flow cytometry as outline below.
(§2) A pre-treatment study was conducted as above except that KMS11 cells were treated overnight (22 hr) with only LY411575. Cells were washed twice with 3 volumes of growth medium, and re-plated with fresh growth medium without the GSI to the original 4 mL volume. […]
sBCMA levels in supernatants collected and frozen at the various timepoints were determined by ELISA following vendor supplied protocol (R&D Systems #DY193). […] Quantified values as determined by the kit were divided by 5.5 to correct for a molecular mass difference between BCMA-Fc fusion protein used in the kit as a standard curve (32,554.6 Da) and the mass of endogenously shed BCMA extra-cellular domain (5,899.3 Da). […]

mBCMA on KMS11 cells = experiment: Time course of membrane BCMA (mBCMA) by flow cytometry after GSI treatment; assay type: cell-based, human; conditions: 2 nM LY411575 or 200 nM PF03084014, 42-hr time course
Description: as §1, §2
For each collected sample, cells were pelleted by centrifugation. […] Samples from all timepoints were analyzed together by flow cytometry on a BD LSR Fortessa instrument. […]
Where receptor density of BCMA was provided, the anti-BCMA antibody binding capacity (ABC) on KMS11 cells was determined using Quantum Simply Cellular beads (Bangs Laboratories #815) following vendor supplied protocol. The ABC is an estimate of the quantity of receptors per cell.

[1] = system: sBCMA in KMS11 xenograft model serum; experiment: In vivo GSI treatment, shed BCMA in serum by ELISA; parameters: species or system NSG mice; conditions: 150 mg/kg BID for 5 days
Description: sBCMA levels in supernatants collected and frozen at the various timepoints were determined by ELISA following vendor supplied protocol (R&D Systems #DY193). Briefly, recombinant human BCMA-Fc protein was included in the kit, and used to generate a standard curve. Collected samples were assayed and sBCMA concentrations extrapolated from the standard curve. […] The results were plotted in Tibco Spotfire or Graphpad Prism against the concentration of GSI. On Day 0, KMS11-Luc cells were harvested and suspended in Hanks Balanced Salt Solution (HBSS) and 50% matrigel solution at a concentration of 25×10^6 cells/mL. Female NOD.Cg-Prkdc^scidII2rg^tm1Wji/SzJ mice (NSG mice) at ˜6 weeks old (Jackson Laboratories, ME, USA), were implanted sub-cutaneously (SQ) with 200 μL of the cell suspension to deliver 5×10^6 KMS11-Luc cells SQ in the right flank. Seven days following tumor inoculation, each mouse received an adoptive transfer (AdT) of 10×10^6 of peripheral blood mononuclear cells (PBMCs) in 100 μL via IV injection in the lateral tail vein. The PBMCs were previously isolated from a human leukopak, frozen and stored in Cryostor10 media in vapor phase liquid Nitrogen tank until use. Immediately prior to AdT, PBMCs were thawed and suspended at a concentration of 100×10^6 cells/ml in Hanks Balanced Salt Solution (HBSS).

mBCMA in KMS11 xenograft = experiment: In vivo GSI treatment, membrane BCMA on tumor cells by flow cytometry; parameters: species or system NSG mice; conditions: 150 mg/kg BID for 5 days
Description: On Day 0, KMS11-Luc cells were harvested and suspended in Hanks Balanced Salt Solution (HBSS) and 50% matrigel solution at a concentration of 25×10^6 cells/mL. Female NOD.Cg-Prkdc^scidII2rg^tm1Wji/SzJ mice (NSG mice) at ˜6 weeks old (Jackson Laboratories, ME, USA), were implanted sub-cutaneously (SQ) with 200 μL of the cell suspension to deliver 5×10^6 KMS11-Luc cells SQ in the right flank. Seven days following tumor inoculation, each mouse received an adoptive transfer (AdT) of 10×10^6 of peripheral blood mononuclear cells (PBMCs) in 100 μL via IV injection in the lateral tail vein. The PBMCs were previously isolated from a human leukopak, frozen and stored in Cryostor10 media in vapor phase liquid Nitrogen tank until use. Immediately prior to AdT, PBMCs were thawed and suspended at a concentration of 100×10^6 cells/ml in Hanks Balanced Salt Solution (HBSS). […] To obtain single cell suspensions from excised tumors, the tissues were minced with scissors followed by mechanical homogenization in dissociation buffer containing RPMI (Gibco, Life Technologies) with Liberase™ research grade collagenase (Roche) and DNase I recombinase (Roche) using the GentleMAX (Miltenyi). Following a 5 minute incubation at 37° C. in a water or bead bath, the homogenates were quenched with 10% FBS and filtered on a 70-μM sieve (352350, Falcon). The concentration of single cell suspensions were measured on the Vi-Cell (Beckman Coulter), and cells were pelleted by centrifugation for 5 minutes at 1200 rpm. The supernatants were discarded and cell pellets were resuspended in 400 μL of RPMI (Gibco, Life Technologies). Tumor cells were plated in a volume of 100 μL/well at a cell density of 500,000 to 2 million/well. For cell surface staining, live/dead stain was added to plated samples in DPBS and incubated for 30 minutes. […] All samples were analyzed together by flow cytometry at the completion of the study. […]

[2] = KMS11-luc, expanded T cells E:T 3:1, 20 hr

| SMILES | GSI concentration with modest enhancement of bivalent AB3 potency (KMS11-luc cells; [2]) [nM] | GSI concentration with significant enhancement of bivalent AB3 potency (KMS11-luc cells; [2]) [nM] | shift of bivalent AB3 response curves with increasing GSI concentration (KMS11-luc cells) | GSI concentration with no effect on bivalent AB3 activity (KMS11-luc cells; [2]) [pM] | GSI concentration with small effect on bivalent AB3 activity (KMS11-luc cells; [2]) [pM] | sBCMA concentration over time (sBCMA from KMS11 cells) | mBCMA levels over time (mBCMA on KMS11 cells) | sBCMA levels between 24 and 48 hours post last dose [1] | time post last dose for which sBCMA levels were ablated [1] | increase in mBCMA compared to the vehicle control (mBCMA in KMS11 xenograft) [fold] | mBCMA levels by 24 hours post last dose (mBCMA in KMS11 xenograft) | time point post last dose through which mBCMA increase was sustained (mBCMA in KMS11 xenograft) [h] |
| --- | --- | --- | --- | --- | --- | --- | --- | --- | --- | --- | --- | --- |
| NC(=O)[C@@H](CCC(F)(F)F)N(Cc1ccc(-c2ncon2)cc1F)S(=O)(=O)c1ccc(Cl)cc1 [BMS-708163, (R)-2-((4-chloro-N-(2-fluoro-4-(1,2,4-oxadiazol-3-yl)benzyl)phenyl)sulfonamido)-5,5,5-trifluoropentanamide] | 8 | ≥ 31 | response curves shifted to the left | – | – | – | – | – | – | – | – | – |
| C[C@H](NC(=O)[C@@H](O)c1cc(F)cc(F)c1)C(=O)N[C@@H]1C(=O)N(C)c2ccccc2-c2ccccc21 [LY411575, (S)-2-((S)-2-(3,5-difluorophenyl)-2-hydroxyacetamido)-N—((S)-5-methyl-6-oxo-6,7-dihydro-5H-dibenzo[b,d]azepin-7-yl)propanamide] | – | ≥ 0.125 | response curves shifted to the left | ≤ 7.8 | 31.2 | no increase over time | increased over time | – | – | – | – | – |
| CCC[C@H](N[C@H]1CCc2cc(F)cc(F)c2C1)C(=O)Nc1cn(C(C)(C)CNCC(C)(C)C)cn1 [PF03084014, (S)-2-(((S)-6,8-difluoro-1,2,3,4-tetrahydronaphthalen-2-yl)amino)-N-(1-(2-methyl-1-(neopentylamino)propan-2-yl)-1H-imidazol-4-yl)pentanamide] | 3 | ≥ 12 | response curves shifted to the left | – | – | no increase over time | increased over time | returning to levels comparable to those observed for the vehicle treated animals | up to 24 hours | 10 | dropped back to levels similar to those observed for the vehicle control | 7 |
